Key:
Type in all cases: in vivo
[1] = tested on: corn earworm (Helicoverpa zea [Boddie]); experiment: Cotton leaf-disc dip test against corn earworm; settings: technical, 96 h
Experimental: (§1) Candidate insecticide compositions were evaluated for activity in foliar evaluations against tobacco budworm (Heliothis virescens [Fabricius]), Colorado potato beetle (Leptinotarsa decemlineata [Say]), corn earworm (Helicoverpa zea [Boddie]), cotton aphid (Aphis gossypii [Glover]) and twospotted spider mite (Tetranychus urticae [Koch]). Each test included controls in which the formulation or test solution minus the active ingredients were applied.
In tests against corn earworm, one inch diameter leaf discs cut from cotton plant leaves (Gossypium hirsutum) were dipped into the test solutions of the test formulations to provide application rates as high as 1000 ppm of the active ingredients. The test formulations were dissolved in distilled water containing 10% acetone and 0.25% of a non-ionic detergent [an octylphenolpoly(ethyleneglycolether)x, available from Roche Applied Science as Triton X-100] to the proper concentrations. Cotton wicks, 0.5 inch diameter by 2 inches long, were soaked with distilled water and placed into the wells of a 32 well rearing tray (available as Rearing Tray Bio-Fit 32, from C-D International, Pittman, N.J.), one wick per well. Treated leaf discs were placed on top of the cotton wicks, one leaf disc per wick, and the rearing tray was transferred to a hood where they were kept until the leaf discs had dried. Each disc was infested with 1 late second to early third instar corn earworm, replicated sixteen times per rate of application, and a lid was placed on the rearing tray. The rearing trays were held in a growth chamber for 96 hours at 25° C., 50% relative humidity and a photoperiod of 12 hours light/12 hours dark. For tests in which the active ingredients were not formulated, i.e. the technical active ingredient was used; a stock solution of the test compound was made. For example, a 100 ppm stock solution may be made by dissolving 4 milligrams of the test compound in 4 mL of acetone and adding the solution to 36 mL of an aqueous Triton X-100 solution (one drop of Triton X-100 dissolved in 100 mL of distilled water). Further dilutions can be made by adding distilled water containing 10% acetone and 0.25% of Triton X-100.
At the end of the 96 hour exposure period, the rearing tray was opened, and the numbers of dead and live insects were counted. […] Using the insect counts, the activity of the test chemical was expressed in percent control. Percent control is derived from the total number of dead insects (TD) compared to the total number of insects (TI) in the test: […]

[2] = tested on: twospotted spider mite (Tetranychus urticae [Koch]); experiment: Foliar leaf-dip test against twospotted spider mite on pinto bean plants; settings: technical, 96 h
Experimental: as §1
In tests against twospotted spider mites, the leaves of potted 3 to 4 inch tall pinto bean plants (Phaseolus vulgaris) were infested with about 50 to 75 adult twospotted spider mites by placing leaf cuttings from a twospotted spider mite colony host pinto bean plant on the upper surface of the test plant leaves. After about 1 hour the newly infested pinto bean leaves were dipped into the test solutions of the test formulations to provide application rates as high as 1000 ppm of the active ingredients. The test formulations were dissolved in, and diluted as necessary, with distilled water containing 10% acetone and 0.25% of a non-ionic detergent [an octylphenolpoly(ethyleneglycolether)x, available from Roche Applied Science as Triton X-100] to the proper concentrations. The treated plants were transferred to a hood where they were kept until the leaves had dried. Once dry, the potted plants were placed into a tray containing at least one inch of water. The plants were spaced far enough apart to prevent the mites from moving between plants. The trays were held in a growth chamber for 96 hours at 25° C., 50% relative humidity and a photoperiod of 14 hours light/10 hours dark. For tests in which the active ingredients were not formulated, i.e. the technical active ingredient was used; a stock solution of the test compound was made. For example, a 100 ppm stock solution may be made by dissolving 4 milligrams of the test compound in 4 mL of acetone and adding the solution to 36 mL of an aqueous Triton X-100 solution (one drop of Triton X-100 dissolved in 100 mL of distilled water). Further dilutions can be made by adding distilled water containing 10% acetone and 0.25% of Triton X-100.
At the end of the 96 hour exposure period the numbers of dead and live insects were counted. […] Using the insect counts, the activity of the test chemical was expressed in percent control. Percent control is derived from the total number of dead insects (TD) compared to the total number of insects (TI) in the test: […]

[3] = tested on: Colorado potato beetle (Leptinotarsa decemlineata [Say]); experiment: Foliar leaf-dip test against adult Colorado potato beetle on tomato plants; settings: technical, 72 h
Experimental: as §1
In tests against adult Colorado potato beetle, the leaves of 6-8 inch tall tomato plants (Lycopersicon lycoper) were dipped into the test solutions of the test formulations to provide application rates as high as 1000 ppm of the active ingredients. The test formulations were dissolved in distilled water containing 10% acetone and 0.25% of a non-ionic detergent [an octylphenolpoly(ethyleneglycolether)x, available from Roche Applied Science as Triton X-100] to the proper concentrations. The treated plants were transferred to a hood where they were kept until the leaves had dried. For tests in which the active ingredients were not formulated, i.e. the technical active ingredient was used; a stock solution of the test compound was made. For example, a 100 ppm stock solution may be made by dissolving 4 milligrams of the test compound in 4 mL of acetone and adding the solution to 36 mL of an aqueous Triton X-100 solution (one drop of Triton X-100 dissolved in 100 mL of distilled water). Further dilutions can be made by adding distilled water containing 10% acetone and 0.25% of Triton X-100.
The treated tomato plants were removed from their pots by cutting the stems just above the soil line. Each excised plant was placed into an individual 8-ounce paper cup. Ten adult Colorado potato beetles were placed into each paper cup, taking care not to cause injury. An opaque plastic lid was placed on each cup, for a 72 hour exposure period and held at 25° C., 50% relative humidity with a photo-period of 12 hours light and 12 hours dark. At the end of the 72 hour exposure period, the cups were opened, and the numbers of dead and live insects were counted. Using the insect counts, the activity of the test chemical was expressed in percent control. Percent control is derived from the total number of dead insects (TD) compared to the total number of insects (TI) in the test: […]

[4] = tested on: cotton aphid (Aphis gossypii [Glover]); experiment: Foliar leaf-dip test against cotton aphid on tomato plants; settings: technical, 72 h
Experimental: as §1
In tests against cotton aphid, the leaves of 6 to 8 inch tall tomato plants (Lycopersicon lycoper) were infested with about 50 cotton aphids by placing leaf cuttings from a cotton aphid colony host tomato plant. After about 12 hours the newly infested tomato leaves were dipped into the test solutions of the test formulations to provide application rates as high as 1000 ppm of the active ingredients. The test formulations were dissolved in, and diluted as necessary, with distilled water containing 10% acetone and 0.25% of a non-ionic detergent [an octylphenolpoly(ethyleneglycolether)x, available from Roche Applied Science as Triton X-1001 to the proper concentrations. After treatment, a square of parafilm was placed around the stem of each test plant, covering the soil of each pot in order to catch dead aphids that fall from the leaves. The treated plants were transferred to a hood where they were kept until the leaves had dried. Once dry, the potted plants were placed into a tray containing at least one inch of water. The plants were spaced far enough apart to prevent the aphids from moving between plants. The trays were held in a growth chamber for 72 hours at 25° C., 50% relative humidity and a photoperiod of 14 hours light/10 hours dark. For tests in which the active ingredients were not formulated, i.e. the technical active ingredient was used; a stock solution of the test compound was made. For example, a 100 ppm stock solution may be made by dissolving 4 milligrams of the test compound in 4 mL of acetone and adding the solution to 36 mL of an aqueous Triton X-100 solution (one drop of Triton X-100 dissolved in 100 mL of distilled water). Further dilutions can be made by adding distilled water containing 10% acetone and 0.25% of Triton X-100.
At the end of the 72 hour exposure period the numbers of dead and live insects were counted. Insects were classified as “dead” if they were off-color or brown and desiccated. Using the insect counts, the activity of the test chemical was expressed in percent control. Percent control is derived from the total number of dead insects (TD) compared to the total number of insects (TI) in the test: […]

[5] = cyano-pyrethroid 0.3 ppm alone (bifenthrin 0.0 ppm)
[6] = cyano-pyrethroid 1.0 ppm alone (bifenthrin 0.0 ppm)
[7] = cyano-pyrethroid 3.0 ppm alone (bifenthrin 0.0 ppm)
[8] = cyano-pyrethroid 10.0 ppm alone (bifenthrin 0.0 ppm)
[9] = cyano-pyrethroid 10.0 ppm alone (bifenthrin 0 ppm)
[10] = cyano-pyrethroid 30.0 ppm alone (bifenthrin 0 ppm)
[11] = cyano-pyrethroid 100.0 ppm alone (bifenthrin 0 ppm)
[12] = cyano-pyrethroid 0.3 ppm alone (bifenthrin 0 ppm)
[13] = cyano-pyrethroid 1.0 ppm alone (bifenthrin 0 ppm)
[14] = cyano-pyrethroid 3.0 ppm alone (bifenthrin 0 ppm)
[15] = cyano-pyrethroid 200.0 ppm alone (bifenthrin 0 ppm)

SMILES	% Mortality Corn Earworm [1, 5]	% Mortality Corn Earworm [1, 6]	% Mortality Corn Earworm [1, 7]	% Mortality Corn Earworm [1, 8]	% Mortality Twospotted Spider Mite [2, 9]	% Mortality Twospotted Spider Mite [2, 10]	% Mortality Twospotted Spider Mite ([2]; cyano-pyrethroid 60.0 ppm alone (bifenthrin 0 ppm))	% Mortality Twospotted Spider Mite [2, 11]	% Mortality Adult Colorado Potato Beetle [3, 12]	% Mortality Adult Colorado Potato Beetle [3, 13]	% Mortality Adult Colorado Potato Beetle [3, 14]	% Mortality Adult Colorado Potato Beetle [3, 9]	% Mortality Cotton Aphid [4, 9]	% Mortality Cotton Aphid [4, 10]	% Mortality Cotton Aphid [4, 11]	% Mortality Twospotted Spider Mite [2, 15]	% Mortality Cotton Aphid [4, 15]
CC1(C)[C@H](C(=O)O[C@H](C#N)c2cccc(Oc3ccccc3)c2)[C@@H]1/C=C(\Cl)C(F)(F)F (racemic) [lambda-cyhalothrin, (S)-α-cyano-3-phenoxybenzyl-(Z)-(1R)-cis-3-(2-chloro-3,3,3-trifluoropropenyl)-2,2-dimethylcyclopropanecarboxylate and (R)-α-cyano-3-phenoxybenzyl-(Z)-(1S)-cis-3-(2-chloro-3,3,3-trifluoropropenyl)-2,2-dimethylcyclopropanecarboxylate]	6%	31%	56%	100%	16%	19%	55%	39%	30%	100%	100%	100%	11%	11%	10%		
CC1(C)[C@H](C(=O)O[C@H](C#N)c2cccc(Oc3ccccc3)c2)[C@@H]1C=C(Br)Br [delta-methrin, (S)-α-cyano-3-phenoxybenzyl (1R)-cis-3-(2,2-dibromovinyl)-2,2-dimethylcyclopropanecarboxylate]	6%	50%	94%	100%	3%	83%		26%	0%	30%	90%	100%		7%	8%	16%	19%
CC(C)[C@H](C(=O)O[C@H](C#N)c1cccc(Oc2ccccc2)c1)c1ccc(Cl)cc1 [esfenvalerate, (S)-α-cyano-3-phenoxybenzyl (S)-2-(4-chlorophenyl)-3-methylbutyrate]	0%	0%	13%	50%	21%	25%		71%	0%	0%	5%	95%		38%	14%	91%	15%

Reference: patent US9596857B2, “Insecticidal and miticidal mixtures of bifenthrin and cyano-pyrethroids” (FMC Corporation, priority 2005, dated 2017)
